Laboratory results as given in US20040242545A1, “Remedy for glaucoma comprising as the active ingredient compound having p13 kinase inhibitory effect” (Santen Phamaceutical Co., Ltd., priority 2001, published 2004).

Tests used:
Type in all cases: in vivo
[1] = test system: intraocular pressure; assay: Intraocular pressure measurement after administration into rabbit anterior chamber; details: for Difference of intraocular pressure, 2 hours after administration / Difference of intraocular pressure, 4 hours after administration / Difference of intraocular pressure, 6 hours after administration: vs just before administration; for Difference of intraocular pressure, 2 hours before administration: pre-dose value vs just before administration; for Difference of intraocular pressure, just before administration: reference time point; for Maximum breadth of the intraocular pressure reduction: on 6 hours after administration
Experimental: In order to examine the influence of the compound having a PI3 kinase blocking action upon the intraocular pressure reduction, measurement of intraocular pressure was conducted using an applanation tonometer or a pneumatic applanation tonometer. LY294002 and wortmannin were provided as test compounds. The former compound was dissolved in methanol to give the concentration of 10^-1 M, and thereto was added 2-hydroxypropyl-β-cyclodextrin as a solubilizer. This solution was diluted in physiological saline to give a LY294002 solution having the concentration of 10^-3 M. The amount of used 2-hydroxypropyl-β-cyclodextrin was determined to make the final concentration thereof to be 4×10^-3 M. Wortmannin was dissolved in dimethylsulfoxide to give the concentration of 10^-1 M for use in the test of administration into anterior chamber, and the obtained solution was diluted in physiological saline to give solutions having the concentration of 10^-4 M and 10^-5 M. Furthermore, dissolution of the compound was conducted in dimethylsulfoxide to give the concentration of 10^-1 M for use in the instillation test, and the obtained solution was diluted in physiological saline to give a 0.04284% (10^-3 M) solution in a suspension state. Rabbit intraocular pressure measurement: An electric current source of a tonometer (pneutonometer model 30 classic) was turned on, and calibration was conducted. […] injection needle was attached to a microsyringe, and a test compound solution or a vehicle was aspirated therein. A rabbit positioner made of aluminum for use in administration into anterior chamber was placed on a table made of aluminum. Further, a rabbit positioner made of wood for use in measurement of intraocular pressure was separately placed on the table made of aluminum. Administration into rabbit anterior chamber: A rabbit was placed on a rabbit positioner made of aluminum for use in administration into anterior chamber, and 0.4% oxybuprocaine hydrochloride was instilled to both eyes with one drop. After fixing an eye lid retractor, the bulbar conjunctiva was held with tweezers, and the needle point was passed from corneallimbus into corneal stroma in the […] direction with the depth of about 2 to 3 mm. Thereafter, the needlepoint was pierced into the anterior chamber, where the test compound solution was infused in an amount of 20 μL. […] Following the completion of the administration operation, the rabbit was brought back to the cage. The rabbit was brought out from the cage on two hours before the administration, just before the administration, and on 2, 4 and 6 hours after the administration, and was placed on the positioner made of wood. Oxybuprocaine hydrochloride at the concentration of 0.4% was instilled to both eyes, and intraocular pressure was measured after fixing the eye lid retractor. The vehicle was administered in a similar manner. Using the intraocular pressure just before the administration as a reference, results are shown by difference (mmHg) between the intraocular pressure of the reference and the intraocular pressure at each time point of the measurement. As obvious from Table 1, the intraocular pressure reduction was observed after the administration of LY294002. Maximum breadth of the intraocular pressure reduction (maximum value of the difference between values of the group administered with the vehicle and the group administered with the test compound) was observed on 6 hours after the administration of 10^-3 M LY294002, with the value of 3.7 mmHg.

[2] = test system: intraocular pressure; assay: Intraocular pressure measurement after administration into monkey anterior chamber
Experimental: (§1) In order to examine the influence of the compound having a PI3 kinase blocking action upon the intraocular pressure reduction, measurement of intraocular pressure was conducted using an applanation tonometer or a pneumatic applanation tonometer. Wortmannin was dissolved in dimethylsulfoxide to give the concentration of 10^−1 M for use in the test of administration into anterior chamber, and the obtained solution was diluted in physiological saline to give solutions having the concentration of 10^−4 M and 10^−5 M. Furthermore, dissolution of the compound was conducted in dimethylsulfoxide to give the concentration of 10^−1 M for use in the instillation test, and the obtained solution was diluted in physiological saline to give a 0.04284% (10^−3 M) solution in a suspension state. Monkey intraocular pressure measurement: Measurement of intraocular pressure was conducted using a pneumatic applanation tonometer (Alcon Japan. Ltd.). Administration into monkey anterior chamber: The administration was carried out in accordance with the process for administering to the rabbit. The dosage amount was 10 μL, and the measurement time of the intraocular pressure was on one hour before the administration, just before the administration, and on 2, 4 and 6 hours after the administration. Using the intraocular pressure just before the administration as a reference, results are shown by difference (mmHg) between the intraocular pressure of the reference and the intraocular pressure at each time point of the measurement. As obvious from Table 1, the intraocular pressure reduction was observed after the administration of LY294002. Maximum breadth of the intraocular pressure reduction (maximum value of the difference between values of the group administered with the vehicle and the group administered with the test compound) was observed on 6 hours after the administration of 10^−3 M LY294002, with the value of 3.7 mmHg.

[3] = test system: intraocular pressure; assay: Intraocular pressure measurement after instillation to monkey
Experimental: as §1, with “Ltd.). Test of instillation to monkey:” for “Ltd.). Administration into monkey anterior chamber:”, “The test compound solution in an amount of 20 μL” for “The administration”, “was instilled” for “was carried out in accordance with the process for administering”, “the eye to be administered.” for “the rabbit.”, “The” for “The dosage amount was 10 μL, and the”

[4] = 10^−3 M LY294002, 20 μL, mean of 6
[5] = 10^−4 M wortmannin, 10 μL, vs just before administration
[6] = instillation, 0.04284% (10^−3 M) wortmannin suspension, 20 μL, vs just before administration, mean of 5
[7] = 10^−4 M wortmannin, 20 μL, mean of 4
[8] = 10^−5 M wortmannin, 20 μL, mean of 4

O=c1cc(N2CCOCC2)oc2c(-c3ccccc3)cccc12 [LY294002, 2-(4-morpholinyl)-8-phenyl-4H-1-benzopyran-4-one]
Difference of intraocular pressure, 2 hours after administration [1, 4]: −3.2 mmHg | Difference of intraocular pressure, 4 hours after administration [1, 4]: −2.7 mmHg | Difference of intraocular pressure, 6 hours after administration [1, 4]: −2.1 mmHg | Maximum breadth of the intraocular pressure reduction (maximum difference between vehicle group and test compound group) ([1]; 10^−3 M LY294002, on 6 hours after administration): 3.7 mmHg | Difference of intraocular pressure, 2 hours before administration ([1]; 10^−3 M LY294002 group, 20 μL, mean of 6): 1.9 mmHg | Difference of intraocular pressure, just before administration ([1]; 10^−3 M LY294002 group, mean of 6): 0.0 mmHg

COC[C@H]1OC(=O)c2coc3c2[C@@]1(C)C1=C(C3=O)[C@@H]2CCC(=O)[C@@]2(C)C[C@H]1OC(C)=O [wortmannin]
Difference of intraocular pressure, 1 hours before administration ([2]; 10^−4 M wortmannin group, 10 μL, pre-dose value vs just before administration): 0.7 mmHg | Difference of intraocular pressure, just before administration ([2]; 10^−4 M wortmannin group, reference time point): 0.0 mmHg | Difference of intraocular pressure, 2 hours after administration [2, 5]: −4.8 mmHg | Difference of intraocular pressure, 4 hours after administration [2, 5]: −4.3 mmHg | Difference of intraocular pressure, 6 hours after administration [2, 5]: −2.1 mmHg | Maximum intraocular pressure reduction ([2]; wortmannin (10^−4 M), on 2 hours after administration): 4.5 mmHg | Maximum breadth of the intraocular pressure reduction ([3]; instillation of wortmannin (0.04284%), on 4 hours after administration): 2.8 mmHg | Difference of intraocular pressure, 1 hours before administration ([3]; instillation, 0.04284% (10^−3 M) wortmannin group, 20 μL, pre-dose value vs just before administration, mean of 5): 1.1 mmHg | Difference of intraocular pressure, 2 hours after administration [3, 6]: −2.6 mmHg | Difference of intraocular pressure, 4 hours after administration [3, 6]: −3.4 mmHg | Difference of intraocular pressure, 6 hours after administration [3, 6]: −1.5 mmHg | Difference of intraocular pressure, just before administration ([3]; instillation, 0.04284% wortmannin group, reference time point, mean of 5): 0.0 mmHg | Difference of intraocular pressure, 2 hours before administration ([1]; 10^−4 M wortmannin group, 20 μL, mean of 4): 2.2 mmHg | Difference of intraocular pressure, just before administration ([1]; 10^−4 M wortmannin group, mean of 4): 0.0 mmHg | Difference of intraocular pressure, 2 hours after administration [1, 7]: −1.2 mmHg | Difference of intraocular pressure, 4 hours after administration [1, 7]: −2.8 mmHg | Difference of intraocular pressure, 6 hours after administration [1, 7]: −3.0 mmHg | Maximum breadth of the intraocular pressure reduction ([1]; 10^−4 M wortmannin): 6.9 mm Hg | Difference of intraocular pressure, 2 hours before administration ([1]; 10^−5 M wortmannin group, 20 μL, mean of 4): 1.2 mmHg | Difference of intraocular pressure, just before administration ([1]; 10^−5 M wortmannin group, mean of 4): 0.0 mmHg | Difference of intraocular pressure, 2 hours after administration [1, 8]: −1.5 mmHg | Difference of intraocular pressure, 4 hours after administration [1, 8]: −1.0 mmHg | Difference of intraocular pressure, 6 hours after administration [1, 8]: 0.6 mmHg | Maximum breadth of the intraocular pressure reduction ([1]; 10^−5 M wortmannin): 3.3 mmHg
